For one assay, the target named is human CXCR4 (Homo sapiens, UniProt P61073). Kind of assay: IC50 for inhibition of CXCR4 activation, β-Arrestin recruitment (Example 22). In kind it is cell-based. Details: host or cells: C2C12 (mouse myoblast) CXCR4 β-Arrestin PathHunter cell line. The method in brief:
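C2C12 cells co-expressing ProLink-tagged human CXCR4 and Enzyme Acceptor-tagged β-arrestin (PathHunter). Peptides tested in 10-point, 3-fold dilutions from 1 μM (1 μM–0.05 nM). Recruitment read by chemiluminescent enzyme-fragment complementation after 90 min incubation.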

For assay [1], the system named is CXCR4/CXCL12 induced p-MEK. Kind of assay: CXCR4/CXCL12 induced p-MEK in Jurkat cells (ELISA). The note with it: 5 nM CXCL12, 5 min. The class given is cell-based, human. The procedure, abridged: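 Jurkat cells in RPMI+GlutaMax containing 10% FBS and 1% penicillin/streptomycin, fresh or conditioned, were resuspended at 2×10^6 cells/ml and […] aliquots placed in tubes. After a 5 min stimulation they were pelleted, rinsed with HBSS and lysed with PMSF and protease/phosphatase inhibitors. Phospho-MEK1 (Ser217/221) was quantified by sandwich ELISA with absorbance read at 450 nm.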
(ELISA stands for enzyme-linked immunosorbent assay.)

A further assay concerns C2C12 Mouse Myoblasts. Kind of assay: Glucose utilization in C2C12 mouse myoblasts. The note with it: peptide 10 μM, 18-22 hours, relative to 0.1% DMSO treated control cells. The class given is cell-based. How it is done:
The effect of the peptides on glucose metabolism can be assessed using an assay of glucose utilization in cultured cultured cells such as mouse myoblasts. Peptides were initially prepared as 10 mM stock in DMSO and used at a final concentration of 10 μM (0.1% DMSO). C2C12 mouse myoblast cell line was purchased from American Type Culture Collection (Manassas, Va.). C2C12 cultures were maintained at 37° C. in a humidified atmosphere of 5% CO2/95% air with medium changes every second day. C2C12 cells were grown in DMEM (1 g/L glucose) supplemented with 10% FBS with 100 IU/ml penicillin and 100 μg/ml streptomycin. C2C12 cells were seeded at 7,000 cells per well on 96-well plates and cultured to confluence. Once the cell reached confluence the media was changed to DMEM (1 g/L glucose) supplemented with 2% HS with 100 IU/ml penicillin and 100 μg/ml streptomycin and maintained at 37° C. in a humidified atmosphere of 5% CO2/95% air, 5 days post-induction of differentiation fresh DMEM (1 g/L glucose) supplemented with 2% HS with 100 IU/ml penicillin and 100 μg/ml streptomycin was added to cultures. Cells were maintained at 37° C. in a humidified atmosphere of 5% CO2 and 95% air for 5 hours. After 5 hours test peptides at 10 μM or controls (0.5 mM or 1 mM metformin in 1% DMSO) prepared in fresh differentiation medium were added to cells and the cultures were maintained at 37° C. in a humidified atmosphere of 5% CO2/95% air for 18-22 hours. At the end of the incubation culture media was removed from the cells and the remaining glucose concentration was measured using a Glucose Assay kit (Abcam) according to the manufacturer's instructions, using a Cytation 3 plate reader at 570 nm (BioTek, Winooski, Vt.). Glucose concentrations in the medium were calculated relative to 0.1% DMSO treated control cells. The relative standard deviation of the result for the 0.1% DMSO treated control was <20%. Metformin was used as a positive control for reduction of glucose levels (increased glucose utilization glucose levels for treatment with metformin (1 mM) treatment were <20% of the 0.1% DMSO treated control value. The results are reported in Table 7.

Another assay relates to Rat H-4-II-E Cells. Kind of assay: TBHP-induced reactive oxygen species (DCFDA). The class given is cell-based. The following applies: peptide 10 μM 18-20 hours, then TBHP 100 μM 1 hour; relative to TBHP control. The protocol:
The protective or synergistic effect of the peptides on cellular levels of reactive oxygen species (ROS) induced by oxidative stress can be assessed using an assay of ROS in cultured cells exposed to a suitable oxidative stress. Peptides were initially prepared as 10 mM stock in DMSO and tested at a final concentration of 10 μM (0.1% DMSO). […] TBHP was used at final concentration of […]. Sulforaphane was used at a final concentration of 10 uM as a protective antioxidant control against TBHP induced ROS production. DCFDA Cellular ROS Detection Assay kit was purchased from […]. H-4-II-E rat liver hepatoma cell line was purchased from American Type Culture Collection (Manassas, Va.). H-4-II-E cells were grown in DMEM supplemented with 10% FBS with 100 IU/ml penicillin and 100 μg/ml streptomycin. Cultures were maintained at 37° C. in a humidified atmosphere of 5% CO2/95% air. H-4-II-E cells were seeded at 15,000-20,000 cells per well on 96-well plates. The next day cells were incubated with test peptides at 10 μM in 0.1% DMSO or sulforaphane at 10 uM and maintained at 37° C. in a humidified atmosphere of 5% CO2/95% air for 18-20 hours. After 18-20 hours of incubation the cells were loaded with DCFDA for 45 min. TBHP at 100 μM was then added to the appropriate wells for 1 hour. ROS activity was determined using a DCFDA Cellular ROS Detection Assay kit (Abcam) according to the manufacturer's instructions. Fluorescence in each sample well on the plate was measured using a Cytation 3 plate reader at Ex/Em=485/535 nm (BioTek, Winooski, Vt.). Activity was calculated relative to TBHP control. […] Activity was calculated relative to THBP treated control.

Square brackets hold non-standard residues; d marks the D form. Peptide text beside a SMILES is read from it.

Sequence of human CXCR4 (P61073 whole entry, the tested form may be a part): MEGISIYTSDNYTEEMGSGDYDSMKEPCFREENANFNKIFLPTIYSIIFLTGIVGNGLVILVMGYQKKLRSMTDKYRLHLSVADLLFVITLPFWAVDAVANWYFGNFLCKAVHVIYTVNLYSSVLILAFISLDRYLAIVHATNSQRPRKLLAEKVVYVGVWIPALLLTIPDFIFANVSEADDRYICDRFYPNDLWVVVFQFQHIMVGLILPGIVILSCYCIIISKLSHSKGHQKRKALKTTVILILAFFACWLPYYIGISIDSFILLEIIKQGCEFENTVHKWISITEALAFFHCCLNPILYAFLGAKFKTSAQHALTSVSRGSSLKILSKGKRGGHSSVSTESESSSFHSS

As usually defined, the IC50 is the concentration at which inhibition is half-maximal. Take `CSCC[C@H](N)C(=O)N[C@@H](CC(C)C)C(=O)N[C@@H](CCCNC(=N)N)C(=O)N[C@@H](CCCNC(=N)N)C(=O)N[C@@H](Cc1ccc(O)cc1)C(=O)N[C@@H](Cc1c[nH]cn1)C(=O)N[C@@H](Cc1c[nH]cn1)C(=O)N[C@@H](CO)C(=O)N[C@H](C(=O)N[C@@H](CCCNC(=N)N)C(=O)N[C@@H](CO)C(=O)N[C@@H](CO)C(=O)N[C@@H](CC(C)C)C(=O)N[C@@H](CCCNC(=N)N)C(=O)N1CCC[C@H]1C(=O)N[C@@H](Cc1ccc(O)cc1)C(=O)N[C@H](C(=O)N[C@@H](CCCCN)C(=O)O)[C@@H](C)O)C(C)C` [compound 2] (H-MLRRYHHSVRSSLRPYTK-OH; N-terminus and C-terminus assumed): half-maximal inhibition against human CXCR4 (IC50) was put at 11 nM. Moreover, in assay [1], the “Percent Inhibition of CXCR4/CXCL12 Induced p-MEK (100 nM Test Article)” value is listed as −1% and the “Percent Inhibition of CXCR4/CXCL12 Induced p-MEK (1 μM Test Article)” value is on record as 28%. In addition, the “Glucose concentration in medium, Percent of Untreated Control” value (“Glucose concentration in medium, Percent” below) in the assay with C2C12 Mouse Myoblasts was 126.7%. Besides, in the assay with Rat H-4-II-E Cells, the “TBHP-Induced ROS, Percent of Control” value worked out at 90.9%.

For the compound `CC(C)C[C@H](NC(=O)[C@H](CO)NC(=O)[C@H](CO)NC(=O)[C@H](CCCNC(=N)N)NC(=O)[C@@H](NC(=O)[C@H](CO)NC(=O)[C@H](Cc1c[nH]cn1)NC(=O)[C@H](Cc1c[nH]cn1)NC(=O)[C@H](Cc1ccc(O)cc1)NC(=O)[C@H](CCCNC(=N)N)NC(=O)[C@H](CCCNC(=N)N)NC(=O)[C@@H](N)CC(C)C)C(C)C)C(=O)N[C@@H](CCCNC(=N)N)C(=O)N1CCC[C@H]1C(=O)N[C@@H](Cc1ccc(O)cc1)C(=O)N[C@H](C(=O)N[C@@H](CCCCN)C(=O)O)[C@@H](C)O` [compound 3] (H-LRRYHHSVRSSLRPYTK-OH; N-terminus and C-terminus assumed), the IC50 at human CXCR4 is 5 nM. Also, in assay [1], the “Percent Inhibition of CXCR4/CXCL12 Induced p-MEK (100 nM Test Article)” value was determined as 29% and the “Percent Inhibition of CXCR4/CXCL12 Induced p-MEK (1 μM Test Article)” value came to 91%. Moreover, the “Glucose concentration in medium, Percent” value in the assay on C2C12 Mouse Myoblasts is 125.8%. In addition, in the assay on Rat H-4-II-E Cells, the “TBHP-Induced ROS, Percent of Control” value came to 95.5%.

Take `CC(C)C[C@H](NC(=O)[C@H](CO)NC(=O)[C@H](CO)NC(=O)[C@H](CCCNC(=N)N)NC(=O)[C@@H](NC(=O)[C@H](CO)NC(=O)[C@H](Cc1c[nH]cn1)NC(=O)[C@H](Cc1c[nH]cn1)NC(=O)[C@H](Cc1ccc(O)cc1)NC(=O)[C@H](CCCNC(=N)N)NC(=O)[C@H](CCC(=O)O)NC(=O)[C@@H](N)CC(C)C)C(C)C)C(=O)N[C@@H](CCCNC(=N)N)C(=O)N1CCC[C@H]1C(=O)N[C@@H](Cc1ccc(O)cc1)C(=O)N[C@H](C(=O)N[C@@H](CCCCN)C(=O)O)[C@@H](C)O` [compound 4] (H-LERYHHSVRSSLRPYTK-OH; N-terminus and C-terminus assumed): at human CXCR4, the half-maximal inhibitory concentration (IC50) amounted to 4 nM. In assay [1], the “Percent Inhibition of CXCR4/CXCL12 Induced p-MEK (100 nM Test Article)” value was determined as 40% and the “Percent Inhibition of CXCR4/CXCL12 Induced p-MEK (1 μM Test Article)” value amounted to 76%. Further, the “Glucose concentration in medium, Percent” value in the assay on C2C12 Mouse Myoblasts came to 127.8%. For the same compound, the “TBHP-Induced ROS, Percent of Control” value with Rat H-4-II-E Cells is listed as 95.8%.

Take `CC(C)C[C@H](NC(=O)[C@H](CO)NC(=O)[C@H](CO)NC(=O)[C@H](CCCNC(=N)N)NC(=O)[C@@H](C)NC(=O)[C@H](CO)NC(=O)[C@H](Cc1c[nH]cn1)NC(=O)[C@H](Cc1c[nH]cn1)NC(=O)[C@H](Cc1ccc(O)cc1)NC(=O)[C@H](CCCNC(=N)N)NC(=O)[C@H](CCC(=O)O)NC(=O)[C@@H](N)CC(C)C)C(=O)N[C@@H](CCCNC(=N)N)C(=O)N1CCC[C@H]1C(=O)N[C@@H](Cc1ccc(O)cc1)C(=O)N[C@H](C(=O)O)[C@@H](C)O` [compound 5] (H-LERYHHS[dA]RSSLRPYT-OH; N-terminus and C-terminus assumed): in assay [1], the “Percent Inhibition of CXCR4/CXCL12 Induced p-MEK (100 nM Test Article)” value is recorded as −20% and the “Percent Inhibition of CXCR4/CXCL12 Induced p-MEK (1 μM Test Article)” value came to 24%. Also, in the assay on C2C12 Mouse Myoblasts, the “Glucose concentration in medium, Percent” value amounted to 128.3%. Besides, the “TBHP-Induced ROS, Percent of Control” value in the assay on Rat H-4-II-E Cells came out at 99.2%.
